Results as given in patent publication US9133235B2, “Macrocyclic antagonists of the motilin receptor for treatment of gastrointestinal dysmotility disorders” (Ocera Therapeutics, Inc., priority 2006, dated 2015).

Legend:
[1] = target: T1, CYP2A6 (Homo sapiens, UniProt P11509); experiment: Cytochrome P450 inhibition, CYP2A6; type: in vitro ADME; details: Supersomes; read-out: IC50 (μM) 2A6
T1 construct: purchased BD Gentest, Becton-Dickinson (Supersomes); host or cells: insect cells (microsomes)
T1 sequence (P11509 1-494): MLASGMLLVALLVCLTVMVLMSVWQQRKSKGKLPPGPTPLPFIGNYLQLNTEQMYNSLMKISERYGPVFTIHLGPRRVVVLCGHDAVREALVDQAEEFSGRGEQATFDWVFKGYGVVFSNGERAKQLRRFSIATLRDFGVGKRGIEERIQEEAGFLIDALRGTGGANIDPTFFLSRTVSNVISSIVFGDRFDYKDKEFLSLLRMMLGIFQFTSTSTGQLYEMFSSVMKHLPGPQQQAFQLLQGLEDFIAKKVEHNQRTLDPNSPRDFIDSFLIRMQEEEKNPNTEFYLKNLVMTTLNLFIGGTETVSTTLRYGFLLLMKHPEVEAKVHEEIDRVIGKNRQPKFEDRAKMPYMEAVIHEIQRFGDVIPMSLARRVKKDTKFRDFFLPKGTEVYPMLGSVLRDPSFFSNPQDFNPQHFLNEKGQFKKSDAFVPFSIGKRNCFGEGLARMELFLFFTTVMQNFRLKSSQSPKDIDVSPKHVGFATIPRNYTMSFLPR
Text: F. Assay for Cytochrome P450 Inhibition
Cytochrome P450 enzymes are implicated in the phase I metabolism of drugs. The majority of drug-drug interactions are metabolism-based and, moreover, these interactions typically involve inhibition of cytochrome P450s. Six CYP450 enzymes (CYP1A2, CYP2C8, CYP2C9, CYP2C19, CYP2D6 and CYP3A4) appear to be commonly responsible for the metabolism of most drugs and the associated drug-drug interactions. Assays to determine the binding of compounds of the invention to the various metabolically important isoforms of cytochrome P450 metabolizing enzymes are commercially available, for example NoAb BioDiscoveries (Mississaugua, ON, Canada) and Absorption Systems (Exton, Pa., USA). As well, a number of appropriate methods have been described or reviewed in the literature. (White, R. E. Ann. Rev. Pharmacol. Toxicol. 2000, 40, 133-157; Li, A. P. Drug. Disc. Today 2001, 6, 357-366; Turpeinen, M.; Korhonen, L. E. Tolonen, A.; et al. Eur. J. Pharm. Sci. 2006, 29, 130-138.)
The concentration of the inhibitor or test compound that inhibited metabolite formation by 50% (IC50) was calculated by non-linear regression analysis of the % inhibition vs. log concentration (M) curve.

[2] = target: human motilin receptor (Homo sapiens, UniProt O43193); experiment: Aequorin functional assay (motilin receptor); type: cell-based; design: host or cells: CHO-K1 cells co-expressing Gα16 and mitochondrially targeted Aequorin; details: functional activity, antagonist testing vs motilin 0.5 nM (EC80)
Sequence of human motilin receptor (O43193 whole entry): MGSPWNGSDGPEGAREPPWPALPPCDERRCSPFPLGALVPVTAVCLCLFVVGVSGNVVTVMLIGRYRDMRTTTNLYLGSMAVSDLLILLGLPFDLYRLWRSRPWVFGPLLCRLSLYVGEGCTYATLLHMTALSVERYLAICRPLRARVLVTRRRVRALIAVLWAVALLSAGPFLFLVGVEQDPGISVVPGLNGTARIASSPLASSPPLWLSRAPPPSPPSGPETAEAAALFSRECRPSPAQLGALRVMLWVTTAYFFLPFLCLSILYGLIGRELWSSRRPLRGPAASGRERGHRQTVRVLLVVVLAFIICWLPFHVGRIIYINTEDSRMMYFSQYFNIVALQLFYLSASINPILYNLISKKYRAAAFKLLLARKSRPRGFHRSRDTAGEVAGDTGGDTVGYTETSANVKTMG
Procedure: B. Aequorin Functional Assay (Motilin Receptor)
The evaluation of compounds of the invention for functional activity can be conducted according to literature methods or as described below. (Carreras, C. W.; Siani, M. A.; Santi, D. V.; Dillon, S. B. Anal. Biochem. 2002, 300, 146-151.)
• Membranes were prepared using AequoScreen™ (EUROSCREEN, Belgium) cell lines expressing the human motilin receptor (cell line ES-380-A; receptor accession #AF034632). This cell line is constructed by transfection of the human motilin receptor into CHO-K1 cells co-expressing Gα16 and the mitochondrially targeted Aequorin (Ref. #ES-WT-A5). • Motilin (Bachem, #H-4385) • Assay buffer: DMEM-F12 (Dulbeccoe's Modified Eagles Medium) with 15 mM HEPES and 0.1% BSA (pH 7.0) • Coelenterazine (Molecular Probes™, Leiden, The Netherlands) Final Test Concentrations (N=5) for Compounds: • 10, 3.16, 1.0, 0.316, 0.10 μM. Compound Handling:
Compounds were provided as dry films at a quantity of approximately 1.2 μmol in pre-formatted 96-well plates. Compounds were dissolved in 100% DMSO at a concentration of 10 mM and stored at −20° C. until further use. Daughter plates were prepared at a concentration of 500 μM in 30% DMSO with 0.1% BSA and stored at −20° C. until testing. On the test day, compounds were allowed to thaw at room temperature and than diluted in assay buffer according to the desired test concentrations. Under these conditions, the maximum final DMSO concentration in the assay was 0.6%.
Cells are collected from culture plates with Ca^2+ and Mg^2+-free phosphate buffered saline (PBS) supplemented with 5 mM EDTA, pelleted for 2 minutes at 1000×g, resuspended in assay buffer (see above) at a density of 5×10^6 cells/mL and incubated overnight in the presence of 5 μM coelenterazine. After loading, cells were diluted with assay buffer to a concentration of 5×10^5 cells/mL.
For agonist testing, 50 μL of the cell suspension was mixed with 50 μL of the appropriate concentration of test compound or motilin (reference agonist) in 96-well plates (duplicate samples). The emission of light resulting from receptor activation was recorded using the Functional Drug Screening System 6000 ‘FDSS 6000’ (Hamamatsu Photonics K. K., Japan).
For antagonist testing, an approximate EC80 concentration of motilin (i.e. 0.5 nM; 100 μL) was injected onto the cell suspension containing the test compounds (duplicate samples) 15-30 minutes after the end of agonist testing and the consequent emission of light resulting from receptor activation was measured as described in the paragraph above.
Results are expressed as Relative Light Units (RLU). Concentration response curves were analyzed using GraphPad™ Prism® (GraphPad Software, San Diego, Calif.) by non-linear regression analysis (sigmoidal dose-response) based on the equation E=Emax/(1+EC50/C)n where E is the measured RLU value at a given agonist concentration (C), Emax is the maximal response, EC50 is the concentration producing 50% stimulation and n is the slope index. For agonist testing, results for each concentration of test compound were expressed as percent activation relative to the signal induced by motilin at a concentration equal to the EC80 (i.e. 0.5 nM). For antagonist testing, results for each concentration of test compound were expressed as percent inhibition relative to the signal induced by motilin at a concentration equal to the EC80 (i.e. 0.5 nM).

| SMILES | IC50 [1] | IC50 [2] |
| --- | --- | --- |
| CCC[C@@H]1NC(=O)[C@@H](C(C)C)NC(=O)[C@@H](Cc2cccc(F)c2)N[C@@H](C)COc2ccccc2CCCNC1=O [Compound 551] | > 100 µM |  |
| CCC[C@@H]1NC(=O)[C@@H](C(C)C)NC(=O)[C@@H](Cc2ccc(O)c(Cl)c2)N[C@@H](C)COc2ccccc2CCCNC1=O [Compound 552] |  | ≤ 0.001 µM |
| CC(C)[C@H]1NC(=O)[C@@H](Cc2cccc(C(F)(F)F)c2)NCCOc2ccccc2CCCNC(=O)[C@H](CN(C)C)NC1=O [Compound 502] |  | ≤ 0.01 µM |
| CCC[C@@H]1NC(=O)[C@@H](C(C)C)NC(=O)[C@@H](Cc2ccc(O)c(C(C)(C)C)c2)NCCOc2ccccc2CCCNC1=O [Compound 553] | > 100 µM |  |
